Values after ≈ are worked out from the molar mass of the structure shown. Active and inactive are the calls of the source. The rule behind the calls is not given here.
Legend:
[1] = Inhibition of PS2 in spinach chloroplasts assessed as photoreduction of DCPIP incubated for 2 mins in dark condition prior to testing by spectrophotometry; set-up: species or system Spinacia oleracea
[2] = test system: Mycolicibacterium smegmatis; assay: Antimycobacterial activity against Mycobacterium smegmatis ATCC 700084 after 3 days by two-fold serial dilution method; assay type: functional; settings: ATCC 700084, 72 h
Mycobacterium kansasii = assay: Antimycobacterial activity against Mycobacterium kansasii DSM 44162 after 7 days by two-fold serial dilution method; assay type: functional; settings: DSM 44162, 168 h
Mycobacterium marinum [3] = assay: Antimycobacterial activity against Mycobacterium marinum CAMP 5644 after 21 days by two-fold serial dilution method; assay type: functional; settings: CAMP 5644, 504 h
[4] = Lipophilicity, log K of the compound by RP-HPLC analysis; assay type: physicochemical
Spinacia oleracea [5] = assay: Inhibition of PS2 in spinach chloroplasts assessed as photoreduction of DCPIP measured remaining activity incubated for 2 mins in dark condition prior to testing by spectrophotometry in presence of diphenylcarbazide relative to control; values are per cent of control; set-up: concentration or dose not given beside the values
Spinacia oleracea [6] = assay: Inhibition of PS2 in spinach chloroplasts assessed as photoreduction of DCPIP measured remaining activity incubated for 2 mins in dark condition prior to testing by spectrophotometry relative to control; values are per cent of control; set-up: concentration or dose not given beside the values
[7] = Cytotoxicity against human THP1 cells after 24 hrs by lactate dehydrogenase assay; assay type: cell-based; settings: THP-1 cells, read-out: LD50
Mycobacterium marinum [8] = assay: Ratio of isoniazid MIC to compound MIC for Mycobacterium marinum CAMP 5644; assay type: functional
[9] = test system: Mycolicibacterium smegmatis; assay: Ratio of isoniazid MIC to compound MIC for Mycobacterium smegmatis ATCC 700084; assay type: functional
Spinacia oleracea [10] = assay: Inhibition of PS2 in spinach chloroplasts assessed as reduction in chlorophyll a fluorescence emission at 0.1 to 1.2 mmol/L by fluorescence spectrophotometry

Compound | IC50 [1] [µM] | MIC [2] [µM] | MIC (Mycobacterium kansasii) [µM] | MIC (Mycobacterium marinum [3]) [µM] | log K [4] | residual activity (Spinacia oleracea [5]) [%] | residual activity (Spinacia oleracea [6]) [%] | CC50 at 24 h [7] [µM] | Ratio (Mycobacterium marinum [8]) | Ratio [9] | inhibition (Spinacia oleracea [10])
Cc1ccc(NC(=O)c2ccc3ccccc3c2O)cc1 | 28.7 | 923 (≈ 256 µg/mL) | 57.7 (≈ 16 µg/mL) | 115 (≈ 31.9 µg/mL) | 1.4008 | 95 | 10 | – | – | – | –
O=C(Nc1ccccc1)c1ccc2ccccc2c1O | 31.3 | 243 (≈ 64 µg/mL) | 15.2 (≈ 4 µg/mL) | 60.7 (≈ 16 µg/mL) | 1.2302 | 95 | 10 | > 20 | – | – | –
O=C(Nc1cccc([N+](=O)[O-])c1)c1ccc2ccccc2c1O | 19.9 | > 830 | > 830 | > 830 | 0.6609 | 95 | 10 | – | – | – | –
COc1ccc(NC(=O)c2ccc3ccccc3c2O)cc1 | 79.5 | > 873 | > 873 | > 873 | 1.1882 | 95 | 10 | – | – | – | –
O=C(Nc1ccccc1F)c1ccc2ccccc2c1O | 57 | 228 (≈ 64.1 µg/mL) | > 910 | 56.8 (≈ 16 µg/mL) | 0.8296 | 95 | 10 | – | – | – | –
O=C(Nc1ccc([N+](=O)[O-])cc1)c1ccc2ccccc2c1O | 24 | > 830 | 51.9 (≈ 16 µg/mL) | 104 (≈ 32.1 µg/mL) | 0.5298 | 95 | 10 | – | – | – | –
O=C(Nc1ccccc1Cl)c1ccc2ccccc2c1O | 29.4 | 860 (≈ 256 µg/mL) | 860 (≈ 256 µg/mL) | 107 (≈ 31.9 µg/mL) | 0.8764 | 95 | 10 | – | – | – | –
COc1cccc(NC(=O)c2ccc3ccccc3c2O)c1 | 23.5 | > 873 | > 873 | 54.5 (≈ 16 µg/mL) | 1.2849 | 95 | 10 | – | – | – | –
O=C(Nc1cccc(Cl)c1)c1ccc2ccccc2c1O | 7.9 | > 860 | 26.8 (≈ 7.98 µg/mL) | 107 (≈ 31.9 µg/mL) | 1.1615 | 95 | 10 | > 20 | – | – | –
O=C(Nc1ccc(Cl)cc1)c1ccc2ccccc2c1O | 10.8 | 215 (≈ 64 µg/mL) | 26.8 (≈ 7.98 µg/mL) | 215 (≈ 64 µg/mL) | 1.1314 | 95 | 10 | > 20 | – | – | –
CC[C@@]1(O)C(=O)OCc2c1cc1n(c2=O)Cc2cc3ccccc3nc2-1 [CAMPTOTHECIN] | – | – | – | – | – | – | – | 0.16 | – | – | –
O=C(Nc1cccc(F)c1)c1ccc2ccccc2c1O | 15.6 | 910 (≈ 256 µg/mL) | 28.4 (≈ 7.99 µg/mL) | 28.4 (≈ 7.99 µg/mL) | 1.0763 | 95 | 10 | > 10 | 16 | – | –
O=C(Nc1cccc(Br)c1)c1ccc2ccccc2c1O | 8.2 | > 748 | > 748 | > 748 | 1.1784 | 95 | 10 | > 20 | – | – | –
O=C(Nc1ccccc1[N+](=O)[O-])c1ccc2ccccc2c1O | – | > 830 | > 830 | > 830 | 0.5014 | 95 | 10 | – | – | – | –
O=C(Nc1ccc(C(F)(F)F)cc1)c1ccc2ccccc2c1O | 36.5 | > 748 | 23.3 (≈ 7.72 µg/mL) | 187 (≈ 62 µg/mL) | 1.1158 | 95 | 10 | 0.6 | – | – | –
COc1ccccc1NC(=O)c1ccc2ccccc2c1O | 200 | > 873 | > 873 | > 873 | 1.4716 | 95 | 10 | – | – | – | –
O=C(Nc1ccc(F)cc1)c1ccc2ccccc2c1O | 20.3 | > 910 | 14.2 (≈ 3.99 µg/mL) | 114 (≈ 32.1 µg/mL) | 1.0533 | 95 | 10 | > 10 | – | – | –
Cc1ccccc1NC(=O)c1ccc2ccccc2c1O | 62.8 | 231 (≈ 64.1 µg/mL) | 115 (≈ 31.9 µg/mL) | 28.8 (≈ 7.99 µg/mL) | 1.1176 | 95 | 10 | > 20 | 16 | – | –
O=C(Nc1ccccc1Br)c1ccc2ccccc2c1O | 61.9 | > 748 | > 748 | > 748 | 0.9234 | 95 | 10 | – | – | – | –
O=C(Nc1ccc(Br)cc1)c1ccc2ccccc2c1O | 9.6 | 46.7 (≈ 16 µg/mL) | 23.3 (≈ 7.97 µg/mL) | 46.7 (≈ 16 µg/mL) | 1.1224 | 95 | 10 | > 20 | – | 2.5 | –
NNC(=O)c1ccncc1 [ISONIAZID] | – | 117 (≈ 16 µg/mL) | – | 467 (≈ 64 µg/mL) | – | – | – | – | – | – | –
Cc1cccc(NC(=O)c2ccc3ccccc3c2O)c1 | 20 | 57.7 (≈ 16 µg/mL) | 28.8 (≈ 7.99 µg/mL) | 28.8 (≈ 7.99 µg/mL) | 1.4254 | 95 | 10 | > 20 | 16 | 2.5 | –
O=C(Nc1cccc(C(F)(F)F)c1)c1ccc2ccccc2c1O | 5.3 | > 748 | > 748 | 46.7 (≈ 15.5 µg/mL) | 1.127 | 95 | 10 | 1 | – | – | –
O=C(Nc1ccccc1C(F)(F)F)c1ccc2ccccc2c1O | 126 | > 773 | > 773 | 96.6 (≈ 32 µg/mL) | 0.6899 | 95 | 10 | > 20 | – | – | Active
CN(C)C(=O)Nc1ccc(Cl)c(Cl)c1 [DCMU] | 1.9 | – | – | – | – | – | – | – | – | – | –

Source: ChEMBL document CHEMBL2440071, “Antimycobacterial and herbicidal activity of ring-substituted 1-hydroxynaphthalene-2-carboxanilides” (Bioorg Med Chem, 2013)
